Here are results for 1 substance from PMC11486602 (The New phytologist, 2024).

The Kd is the constant that tells how readily two partners part at equilibrium.

Test [1] has as its target PROTODERMAL FACTOR2 (PDF2), pdf2(START)^L467P (Arabidopsis thaliana, UniProt Q93V99, L467P). Put plainly: microscale thermophoresis with […] DOPC/LysoPC […] liposomes. In kind it is binding.
Test [2] addresses T1, PROTODERMAL FACTOR2 (PDF2) (Arabidopsis thaliana, UniProt Q93V99).
T1 sequence (Q93V99 244-476 limits assumed): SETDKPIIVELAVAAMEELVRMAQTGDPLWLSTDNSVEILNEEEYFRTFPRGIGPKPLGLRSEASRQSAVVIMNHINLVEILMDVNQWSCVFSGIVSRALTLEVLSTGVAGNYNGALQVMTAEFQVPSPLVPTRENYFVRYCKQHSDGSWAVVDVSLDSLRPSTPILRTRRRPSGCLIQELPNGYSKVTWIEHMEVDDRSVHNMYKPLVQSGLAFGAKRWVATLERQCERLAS
The description is as above. In kind it is binding.

Chain of PROTODERMAL FACTOR2 (PDF2), pdf2(START)^L467P (Q93V99 244-476 L467P): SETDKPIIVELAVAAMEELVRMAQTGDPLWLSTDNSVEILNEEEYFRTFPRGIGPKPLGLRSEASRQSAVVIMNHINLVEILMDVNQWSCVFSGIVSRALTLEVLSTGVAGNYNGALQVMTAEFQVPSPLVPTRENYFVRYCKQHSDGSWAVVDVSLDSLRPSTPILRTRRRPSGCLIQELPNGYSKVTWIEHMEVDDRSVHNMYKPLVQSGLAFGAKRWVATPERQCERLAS

As to LysoPC 18:1, the Kd in test [1] turned out to be 200 µM; in test [2], 17 µM.
